In the supplement of paper PMC10307832:

Compound: C1CC(C2=C(C1)C3=C(N2)C=CC(=C3)Cl)C(=O)N [Selisistat] + Nc1nc2[nH]cc(CCc3ccc(C(=O)N[C@@H](CCC(=O)O)C(=O)O)cc3)c2c(=O)[nH]1 [Pemetrexed] (partner 0.2 µM)
Assay: relative viability (nuclei count vs DMSO), 5 days (fraction); higher = more cells survive
Conditions: first compound 0.4 µM
How it was run: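 Dosing by pin tool came one day after lung cancer cell lines were seeded in 1536-well plates, using either one drug or a fixed anchor-drug dose plus five library-drug doses (not always all listed) in √10 steps. After 5 days, nuclei were counted on 4× images. Relative viability is treated-well nuclei count divided by vehicle-well nuclei count, and values are medians of duplicate plates.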

Cell Line | relative viability
H3255 | 0.556
COR-L23 | 0.182
COR-L 105 | 1.16
LOU-NH91 | 0.329
ChaGo-K-1 | 0.237
NCI-H2405 | 0.984
HOP-62 | 0.327
LU99A | 0.169
BEN | 0.876
HARA | 0.266
HCC-78 | 0.917
NCI-H322M | 0.558
LCLC-97TM1 | 0.153
NCI-H2009 | 1.13
A-427 | 0.996
NCI-H441 | 0.31
NCI-H661 | 0.915

Cell Line | relative viability
NCI-H1734 | 0.357
NCI-H460 | 0.0578
NCI-H2347 | 0.526
SK-LU-1 | 0.985
201T | 0.325
NCI-H1915 | 0.494
HCC-827 | 0.258
LXF-289 | 0.925
NCI-H23 | 0.649
NCI-H647 | 0.165
CAL-12T | 1.29
NCI-H1651 | 0.64
EPLC-272H | 0.257
NCI-H2228 | 0.32
NCI-H1355 | 1.12
NCI-H3122 | 0.184
NCI-H1437 | 0.321

Same assay, conditions: first compound 1.265 µM

Cell Line | relative viability
H3255 | 0.556
COR-L23 | 0.212
COR-L 105 | 1.07
LOU-NH91 | 0.339
ChaGo-K-1 | 0.247
NCI-H2405 | 1.04
HOP-62 | 0.284
LU99A | 0.176
BEN | 0.614
HARA | 0.27
HCC-78 | 0.949
NCI-H322M | 0.633
LCLC-97TM1 | 0.177
NCI-H2009 | 1.07
A-427 | 1.04
NCI-H441 | 0.247
NCI-H661 | 0.898

Cell Line | relative viability
NCI-H1734 | 0.388
NCI-H460 | 0.0622
NCI-H2347 | 0.425
SK-LU-1 | 0.981
201T | 0.299
NCI-H1915 | 0.559
HCC-827 | 0.266
LXF-289 | 1.04
NCI-H23 | 0.742
NCI-H647 | 0.203
CAL-12T | 1.25
NCI-H1651 | 0.673
EPLC-272H | 0.315
NCI-H2228 | 0.308
NCI-H1355 | 1.08
NCI-H3122 | 0.198
NCI-H1437 | 0.328

Same assay, conditions: first compound 4 µM

Cell Line | relative viability
H3255 | 0.528
COR-L23 | 0.193
COR-L 105 | 1.16
LOU-NH91 | 0.42
ChaGo-K-1 | 0.257
HOP-62 | 0.448
LU99A | 0.21
BEN | 0.532
HCC-78 | 0.924
NCI-H2009 | 1.06
NCI-H441 | 0.293
NCI-H661 | 0.854
NCI-H1734 | 0.401
NCI-H460 | 0.0632
NCI-H2347 | 0.374
SK-LU-1 | 1.01
201T | 0.364
NCI-H1915 | 0.495
HCC-827 | 0.266
LXF-289 | 0.83
NCI-H647 | 0.193
CAL-12T | 1.3
NCI-H1651 | 0.51
EPLC-272H | 0.317
NCI-H2228 | 0.344
NCI-H1355 | 1
NCI-H3122 | 0.187
NCI-H1437 | 0.321

Same assay, conditions: first compound 12.65 µM

Cell Line | relative viability
H3255 | 0.552
COR-L23 | 0.19
COR-L 105 | 0.869
LOU-NH91 | 0.395
ChaGo-K-1 | 0.36
NCI-H2405 | 1.01
HOP-62 | 0.284
LU99A | 0.184
BEN | 0.698
HARA | 0.303
HCC-78 | 0.774
NCI-H322M | 0.515
LCLC-97TM1 | 0.155
NCI-H2009 | 1.04
A-427 | 1.07
NCI-H441 | 0.271
NCI-H661 | 0.929

Cell Line | relative viability
NCI-H1734 | 0.434
NCI-H460 | 0.0572
NCI-H2347 | 0.411
SK-LU-1 | 0.967
201T | 0.343
NCI-H1915 | 0.462
HCC-827 | 0.256
LXF-289 | 0.841
NCI-H23 | 0.619
NCI-H647 | 0.174
CAL-12T | 1.12
NCI-H1651 | 0.519
EPLC-272H | 0.336
NCI-H2228 | 0.325
NCI-H1355 | 1.08
NCI-H3122 | 0.205
NCI-H1437 | 0.28

Same assay, conditions: first compound 40 µM

Cell Line | relative viability
H3255 | 0.526
COR-L23 | 0.2
COR-L 105 | 1.1
LOU-NH91 | 0.459
ChaGo-K-1 | 0.231
NCI-H2405 | 1.04
HOP-62 | 0.488
LU99A | 0.163
BEN | 0.68
HARA | 0.215
HCC-78 | 0.878
NCI-H322M | 0.618
LCLC-97TM1 | 0.206
NCI-H2009 | 1.04
A-427 | 0.988
NCI-H441 | 0.279
NCI-H661 | 0.861

Cell Line | relative viability
NCI-H1734 | 0.391
NCI-H460 | 0.0629
NCI-H2347 | 0.432
SK-LU-1 | 1.03
201T | 0.324
NCI-H1915 | 0.489
HCC-827 | 0.251
LXF-289 | 0.959
NCI-H23 | 0.595
NCI-H647 | 0.178
CAL-12T | 1.23
NCI-H1651 | 0.497
EPLC-272H | 0.284
NCI-H2228 | 0.408
NCI-H1355 | 1.11
NCI-H3122 | 0.188
